Results published in ChEMBL document CHEMBL4765227, “Hit to lead optimization of a series of N-[4-(1,3-benzothiazol-2-yl)phenyl]acetamides as monoacylglycerol lipase inhibitors with potential anticancer activity” (Eur J Med Chem, 2016).

What was measured:
Assay type in all cases: functional
RPMI-8226 [1] = test: Growth inhibition of human RPMI-8226 cells at 10 uM incubated for 48 hrs by sulforhodamine B assay relative to control; settings: read-out: GI
EKVX = test: Growth inhibition of human EKVX cells at 10 uM incubated for 48 hrs by sulforhodamine B assay relative to control; settings: read-out: GI
HOP-92 = test: Growth inhibition of human HOP-92 cells at 10 uM incubated for 48 hrs by sulforhodamine B assay relative to control; settings: read-out: GI
HCC 2998 = test: Growth inhibition of human HCC 2998 cells at 10 uM incubated for 48 hrs by sulforhodamine B assay relative to control; settings: read-out: GI
HCT-15 [2] = test: Growth inhibition of human HCT-15 cells at 10 uM incubated for 48 hrs by sulforhodamine B assay relative to control; settings: read-out: GI
SW-620 [3] = test: Growth inhibition of human SW-620 cells at 10 uM incubated for 48 hrs by sulforhodamine B assay relative to control; settings: read-out: GI
SF-268 = test: Growth inhibition of human SF-268 cells at 10 uM incubated for 48 hrs by sulforhodamine B assay relative to control; settings: read-out: GI
SNB-19 = test: Growth inhibition of human SNB-19 cells at 10 uM incubated for 48 hrs by sulforhodamine B assay relative to control; settings: read-out: GI
SNB-75 [4] = test: Growth inhibition of human SNB-75 cells at 10 uM incubated for 48 hrs by sulforhodamine B assay relative to control; settings: read-out: GI
Malme-3M = test: Growth inhibition of human Malme-3M cells at 10 uM incubated for 48 hrs by sulforhodamine B assay relative to control; settings: read-out: GI
SK-MEL-28 = test: Growth inhibition of human SK-MEL-28 cells at 10 uM incubated for 48 hrs by sulforhodamine B assay relative to control; settings: read-out: GI
UACC-257 = test: Growth inhibition of human UACC-257 cells at 10 uM incubated for 48 hrs by sulforhodamine B assay relative to control; settings: read-out: GI
OVCAR-5 = test: Growth inhibition of human OVCAR-5 cells at 10 uM incubated for 48 hrs by sulforhodamine B assay relative to control; settings: read-out: GI
A498 [5] = test: Growth inhibition of human A498 cells at 10 uM incubated for 48 hrs by sulforhodamine B assay relative to control; settings: read-out: GI
T47D [6] = test: Growth inhibition of human T47D cells at 10 uM incubated for 48 hrs by sulforhodamine B assay relative to control; settings: read-out: GI
SK-MEL-2 [7] = test: Growth inhibition of human SK-MEL-2 cells at 10 uM incubated for 48 hrs by sulforhodamine B assay relative to control; settings: read-out: GI
HL-60(TB) = test: Growth inhibition of human HL-60(TB) cells incubated for 48 hrs by sulforhodamine B assay
RPMI-8226 [8] = test: Growth inhibition of human RPMI-8226 cells incubated for 48 hrs by sulforhodamine B assay
A549 = test: Growth inhibition of human A549/ATCC cells incubated for 48 hrs by sulforhodamine B assay
NCI-H322M = test: Growth inhibition of human NCI-H322M cells incubated for 48 hrs by sulforhodamine B assay
NCI-H522 = test: Growth inhibition of human NCI-H522 cells incubated for 48 hrs by sulforhodamine B assay
HCT-15 [9] = test: Growth inhibition of human HCT-15 cells incubated for 48 hrs by sulforhodamine B assay
SW-620 [10] = test: Growth inhibition of human SW-620 cells incubated for 48 hrs by sulforhodamine B assay
SF-295 = test: Growth inhibition of human SF-295 cells incubated for 48 hrs by sulforhodamine B assay
SNB-75 [11] = test: Growth inhibition of human SNB-75 cells incubated for 48 hrs by sulforhodamine B assay
U-251 = test: Growth inhibition of human U-251 cells incubated for 48 hrs by sulforhodamine B assay
M14 = test: Growth inhibition of human M14 cells incubated for 48 hrs by sulforhodamine B assay
MDA-MB-435 = test: Growth inhibition of human MDA-MB-435 cells incubated for 48 hrs by sulforhodamine B assay
SK-MEL-2 [12] = test: Growth inhibition of human SK-MEL-2 cells incubated for 48 hrs by sulforhodamine B assay
OVCAR-4 = test: Growth inhibition of human OVCAR-4 cells incubated for 48 hrs by sulforhodamine B assay
A498 [13] = test: Growth inhibition of human A498 cells incubated for 48 hrs by sulforhodamine B assay
CAKI-1 = test: Growth inhibition of human CAKI-1 cells incubated for 48 hrs by sulforhodamine B assay
SN12C = test: Growth inhibition of human SN12C cells incubated for 48 hrs by sulforhodamine B assay
BT-549 = test: Growth inhibition of human BT-549 cells incubated for 48 hrs by sulforhodamine B assay
T47D [14] = test: Growth inhibition of human T47D cells incubated for 48 hrs by sulforhodamine B assay
[15] = read-out: LC50 (the source's name)

O=C(Cn1ccc2ccccc21)Nc1ccc(-c2nc3ccccc3s2)cc1
inhibition of growth at 10 µM (RPMI-8226 [1]): 0% | inhibition of growth at 10 µM (EKVX): -7.41% | inhibition of growth at 10 µM (HOP-92): -4.8% | inhibition of growth at 10 µM (HCC 2998): -3.48% | inhibition of growth at 10 µM (HCT-15 [2]): -10.2% | inhibition of growth at 10 µM (SW-620 [3]): -6.47% | inhibition of growth at 10 µM (SF-268): 3.37% | inhibition of growth at 10 µM (SNB-19): 1.41% | inhibition of growth at 10 µM (SNB-75 [4]): 6.21% | inhibition of growth at 10 µM (Malme-3M): -8.06% | inhibition of growth at 10 µM (SK-MEL-28): -13.7% | inhibition of growth at 10 µM (UACC-257): -0.08% | inhibition of growth at 10 µM (OVCAR-5): -3.94% | inhibition of growth at 10 µM (A498 [5]): 0.94% | inhibition of growth at 10 µM (T47D [6]): 9.38%

O=C(Cn1cncn1)Nc1ccc(-c2nc3ccccc3s2)cc1
inhibition of growth at 10 µM (RPMI-8226 [1]): 16.8% | inhibition of growth at 10 µM (EKVX): 9.8% | inhibition of growth at 10 µM (HOP-92): 6.49% | inhibition of growth at 10 µM (HCC 2998): 6.06% | inhibition of growth at 10 µM (HCT-15 [2]): -1.4% | inhibition of growth at 10 µM (SW-620 [3]): -6.34% | inhibition of growth at 10 µM (SF-268): 2.87% | inhibition of growth at 10 µM (SNB-19): 6.99% | inhibition of growth at 10 µM (SNB-75 [4]): 7.87% | inhibition of growth at 10 µM (Malme-3M): -0.27% | inhibition of growth at 10 µM (SK-MEL-28): -11% | inhibition of growth at 10 µM (UACC-257): -2.17% | inhibition of growth at 10 µM (OVCAR-5): -15% | inhibition of growth at 10 µM (A498 [5]): 11.6% | inhibition of growth at 10 µM (T47D [6]): 35.1%

O=C(CNc1ccc(Cl)cc1)Nc1ccc(-c2nc3ccccc3s2)cc1
inhibition of growth at 10 µM (RPMI-8226 [1]): 54% | inhibition of growth at 10 µM (HOP-92): 2.16% | inhibition of growth at 10 µM (HCC 2998): 116% | inhibition of growth at 10 µM (HCT-15 [2]): 114% | inhibition of growth at 10 µM (SW-620 [3]): 77.4% | inhibition of growth at 10 µM (SF-268): 75.9% | inhibition of growth at 10 µM (SNB-19): 36.4% | inhibition of growth at 10 µM (SNB-75 [4]): 39.9% | inhibition of growth at 10 µM (Malme-3M): 130% | inhibition of growth at 10 µM (SK-MEL-2 [7]): 21.5% | inhibition of growth at 10 µM (SK-MEL-28): 0.54% | inhibition of growth at 10 µM (UACC-257): 9.09% | inhibition of growth at 10 µM (OVCAR-5): -21.1% | inhibition of growth at 10 µM (T47D [6]): 95.4% | GI50 (HL-60(TB)): 2.23 µM | TGI (HL-60(TB)): 6.05 µM | CC50 (HL-60(TB); [15]): > 100 µM | GI50 (RPMI-8226 [8]): 2.52 µM | LC50 (RPMI-8226 [8]): > 100 µM | TGI (RPMI-8226 [8]): 6.73 µM | GI50 (A549): 3.31 µM | TGI (A549): 13.7 µM | CC50 (A549; [15]): > 100 µM | GI50 (NCI-H322M): 2 µM | LC50 (concentration killing 50% of cells) (NCI-H322M): 12.3 µM | TGI (NCI-H322M): 4.65 µM | GI50 (NCI-H522): 1.32 µM | LC50 (50% lethal concentration) (NCI-H522): 7.46 µM | TGI (NCI-H522): 3.13 µM | GI50 (HCT-15 [9]): 1.56 µM | TGI (HCT-15 [9]): 4.74 µM | CC50 (HCT-15 [9]; [15]): 45.9 µM | GI50 (SW-620 [10]): 1.89 µM | LC50 (concentration killing 50% of cells) (SW-620 [10]): 8.08 µM | TGI (SW-620 [10]): 3.9 µM | GI50 (SF-295): 1.28 µM | LC50 (concentration causing 50% net cell kill) (SF-295): 61.8 µM | TGI (SF-295): 28.1 µM | GI50 (SNB-75 [11]): 2.65 µM | LC50 (concentration killing 50% of cells) (SNB-75 [11]): 37.6 µM | TGI (SNB-75 [11]): 14.1 µM | GI50 (U-251): 1.94 µM | LC50 (lethal concentration 50) (U-251): 7.84 µM | TGI (U-251): 3.9 µM | GI50 (M14): 1.78 µM | TGI (M14): 3.84 µM | CC50 (M14; [15]): 8.28 µM | GI50 (MDA-MB-435): 2.66 µM | LC50 (MDA-MB-435): 42.7 µM | TGI (MDA-MB-435): 11.1 µM | GI50 (SK-MEL-2 [12]): 6.19 µM | LC50 (lethal concentration, 50% cell kill) (SK-MEL-2 [12]): > 100 µM | TGI (SK-MEL-2 [12]): 27.9 µM | GI50 (OVCAR-4): 2.24 µM | LC50 (OVCAR-4): 42.3 µM | TGI (OVCAR-4): 8.49 µM | GI50 (A498 [13]): 13 µM | TGI (A498 [13]): 25.8 µM | CC50 (A498 [13]; [15]): 50.9 µM | GI50 (CAKI-1): 2.74 µM | LC50 (concentration killing 50% of cells) (CAKI-1): 34.4 µM | TGI (CAKI-1): 10.5 µM | GI50 (SN12C): 2.74 µM | LC50 (SN12C): 73.4 µM | TGI (SN12C): 8.49 µM | GI50 (BT-549): 1.57 µM | LC50 (concentration killing 50% of cells) (BT-549): 9.1 µM | TGI (BT-549): 3.78 µM | GI50 (T47D [14]): 1.86 µM | LC50 (concentration killing 50% of cells) (T47D [14]): > 100 µM | TGI (T47D [14]): 5.94 µM

O=C(Cn1cnc2ccccc21)Nc1ccc(-c2nc3ccccc3s2)cc1
inhibition of growth at 10 µM (RPMI-8226 [1]): 62.6% | inhibition of growth at 10 µM (EKVX): 46.8% | inhibition of growth at 10 µM (HOP-92): 18.4% | inhibition of growth at 10 µM (HCC 2998): 24.9% | inhibition of growth at 10 µM (HCT-15 [2]): 7.41% | inhibition of growth at 10 µM (SW-620 [3]): 15.2% | inhibition of growth at 10 µM (SF-268): 14.7% | inhibition of growth at 10 µM (SNB-19): 28.5% | inhibition of growth at 10 µM (SNB-75 [4]): 6.6% | inhibition of growth at 10 µM (Malme-3M): 18.9% | inhibition of growth at 10 µM (SK-MEL-28): -0.72% | inhibition of growth at 10 µM (UACC-257): 37.9% | inhibition of growth at 10 µM (OVCAR-5): -5.63% | inhibition of growth at 10 µM (A498 [5]): 33.2% | inhibition of growth at 10 µM (T47D [6]): 52.8%
